In ChEMBL document CHEMBL1201862, “PubChem BioAssay data set” (2004):
Active and inactive are the calls of the source.

Legend:
[1] = molecular target: Sphingosine 1-phosphate receptor 2 (Homo sapiens, UniProt O95136); test: Dose Response Cell Based Assay for Antagonists of the S1P2 Receptor. [Related pubchem assays: 856, 736 ]; type: functional
[2] = HEK-293T cell viability reduction – luminescence, B-cell screen hits, cytotoxicity control for BCR NF-kB inhibitor project, dose response (AID 489021); type: functional, cell-based;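 further: HEK-293T cells carrying an NF-kB luciferase reporter; cells exposed to compound for about 14 hours before viability readout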
[3] = Luminescence Cell-Based Dose Confirmation HTS to Identify Inhibitors of Polyadenylation.; type: functional
Estrogen receptor = molecular target: T1, Estrogen receptor (Homo sapiens, UniProt P03372);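 further: potency for inhibiting coactivator peptide recruitment to the receptor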
T1 sequence (P03372 whole entry): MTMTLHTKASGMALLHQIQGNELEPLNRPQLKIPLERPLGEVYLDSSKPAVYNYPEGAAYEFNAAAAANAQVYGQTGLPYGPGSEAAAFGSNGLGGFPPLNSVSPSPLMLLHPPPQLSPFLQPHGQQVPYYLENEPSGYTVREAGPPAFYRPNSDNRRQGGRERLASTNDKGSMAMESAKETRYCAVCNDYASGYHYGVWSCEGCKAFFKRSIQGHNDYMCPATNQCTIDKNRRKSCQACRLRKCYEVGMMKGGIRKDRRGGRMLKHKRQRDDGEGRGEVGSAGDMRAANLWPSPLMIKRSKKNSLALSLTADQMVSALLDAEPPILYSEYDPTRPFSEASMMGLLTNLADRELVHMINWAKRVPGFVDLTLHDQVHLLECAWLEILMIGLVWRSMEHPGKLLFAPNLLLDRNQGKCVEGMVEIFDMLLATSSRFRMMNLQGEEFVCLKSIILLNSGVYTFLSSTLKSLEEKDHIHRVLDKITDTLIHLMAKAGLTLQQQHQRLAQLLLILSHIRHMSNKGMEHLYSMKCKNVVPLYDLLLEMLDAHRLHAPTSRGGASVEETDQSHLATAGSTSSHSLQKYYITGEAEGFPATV

Escherichia coli = test: microbe, parasite or virus in culture
[4] = HIV-1 Vif–A3G interaction blockers – biochemical, TR-FRET, GST-Vif 1-94, biotin-A3G peptide, dose response retest, primary screen (AID 1117319); type: functional;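 further: TR-FRET signal of purified GST-Vif binding a biotinylated A3G peptide; inhibitors lower the FRET signal by blocking Vif and A3G binding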
[5] = molecular target: T2, Histone-lysine N-methyltransferase NSD2 (Homo sapiens, UniProt O96028); type: biochemical
T2 sequence (O96028 whole entry): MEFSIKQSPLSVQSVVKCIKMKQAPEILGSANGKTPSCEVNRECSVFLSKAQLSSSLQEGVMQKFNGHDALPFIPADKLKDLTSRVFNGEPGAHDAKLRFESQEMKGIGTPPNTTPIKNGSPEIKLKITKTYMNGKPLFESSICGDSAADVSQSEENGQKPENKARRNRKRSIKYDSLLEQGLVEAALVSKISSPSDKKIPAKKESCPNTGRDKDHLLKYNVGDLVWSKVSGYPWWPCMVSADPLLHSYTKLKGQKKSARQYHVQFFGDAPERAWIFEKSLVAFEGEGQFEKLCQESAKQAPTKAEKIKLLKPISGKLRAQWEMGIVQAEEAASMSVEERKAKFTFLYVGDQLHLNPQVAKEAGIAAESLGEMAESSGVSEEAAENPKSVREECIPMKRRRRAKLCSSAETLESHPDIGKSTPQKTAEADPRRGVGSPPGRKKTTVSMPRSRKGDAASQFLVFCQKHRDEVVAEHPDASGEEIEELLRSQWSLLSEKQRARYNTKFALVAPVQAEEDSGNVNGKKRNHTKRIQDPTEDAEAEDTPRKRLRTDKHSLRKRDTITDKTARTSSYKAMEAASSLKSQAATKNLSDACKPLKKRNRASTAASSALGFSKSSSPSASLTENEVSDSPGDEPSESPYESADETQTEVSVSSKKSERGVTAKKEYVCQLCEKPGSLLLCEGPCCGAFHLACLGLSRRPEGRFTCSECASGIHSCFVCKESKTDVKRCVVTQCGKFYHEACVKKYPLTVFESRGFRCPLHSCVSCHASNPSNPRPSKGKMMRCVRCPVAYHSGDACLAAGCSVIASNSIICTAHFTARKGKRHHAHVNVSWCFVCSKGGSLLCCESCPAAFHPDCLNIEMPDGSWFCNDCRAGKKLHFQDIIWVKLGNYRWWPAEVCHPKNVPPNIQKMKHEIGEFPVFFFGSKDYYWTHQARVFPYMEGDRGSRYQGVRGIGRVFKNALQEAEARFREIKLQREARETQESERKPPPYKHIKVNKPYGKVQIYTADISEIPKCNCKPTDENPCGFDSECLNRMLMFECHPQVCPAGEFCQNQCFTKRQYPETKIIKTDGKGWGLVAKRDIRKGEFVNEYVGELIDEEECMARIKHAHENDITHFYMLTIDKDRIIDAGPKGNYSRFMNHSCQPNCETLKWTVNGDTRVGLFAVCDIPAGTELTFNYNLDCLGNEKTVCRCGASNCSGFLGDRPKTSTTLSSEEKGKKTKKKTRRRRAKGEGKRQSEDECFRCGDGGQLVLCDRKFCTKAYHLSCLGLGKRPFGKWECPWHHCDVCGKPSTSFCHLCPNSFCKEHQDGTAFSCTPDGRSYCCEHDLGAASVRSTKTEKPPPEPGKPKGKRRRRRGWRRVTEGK

[6] = molecular target: Mitogen-activated protein kinase 10 (Homo sapiens, UniProt P53779); test: Dose response biochemical screening assay for inhibitors of c-Jun N-Terminal Kinase 3 (JNK3). [Related pubchem assays: 746 ]
Chain of Mitogen-activated protein kinase 10 (P53779 whole entry): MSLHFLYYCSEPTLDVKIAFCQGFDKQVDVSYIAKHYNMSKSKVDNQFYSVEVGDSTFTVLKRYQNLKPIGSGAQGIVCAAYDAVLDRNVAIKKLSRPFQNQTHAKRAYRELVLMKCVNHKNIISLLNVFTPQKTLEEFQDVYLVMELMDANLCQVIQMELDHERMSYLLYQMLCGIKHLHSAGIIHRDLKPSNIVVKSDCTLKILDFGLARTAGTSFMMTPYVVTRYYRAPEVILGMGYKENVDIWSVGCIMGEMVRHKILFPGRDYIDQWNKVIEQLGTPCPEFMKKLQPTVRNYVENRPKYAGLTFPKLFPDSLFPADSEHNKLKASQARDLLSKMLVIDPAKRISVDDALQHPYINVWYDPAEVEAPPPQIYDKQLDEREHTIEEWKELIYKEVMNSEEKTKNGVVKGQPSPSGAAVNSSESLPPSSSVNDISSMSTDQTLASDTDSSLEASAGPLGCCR

[7] = alpha-synuclein stem-loop luciferase translation blockers – H4 neuroglioma cells, luminescence, confirmation (AID 1988); type: functional, cell-based
[8] = luciferase reporter signal suppression in cells – H4 neuroglioma cells, luminescence, dose response (AID 1990); type: functional, cell-based
[9] = molecular target: T3, Corticotropin-releasing factor receptor 2/Corticotropin-releasing factor-binding protein (Homo sapiens, UniProt P24387+Q13324); test: activators of CRF receptor 2 with binding protein – uHTS hits, confirmation (AID 602473); type: functional; conditions: read-out: EC50_Mean
T3 sequence (Q13324 whole entry): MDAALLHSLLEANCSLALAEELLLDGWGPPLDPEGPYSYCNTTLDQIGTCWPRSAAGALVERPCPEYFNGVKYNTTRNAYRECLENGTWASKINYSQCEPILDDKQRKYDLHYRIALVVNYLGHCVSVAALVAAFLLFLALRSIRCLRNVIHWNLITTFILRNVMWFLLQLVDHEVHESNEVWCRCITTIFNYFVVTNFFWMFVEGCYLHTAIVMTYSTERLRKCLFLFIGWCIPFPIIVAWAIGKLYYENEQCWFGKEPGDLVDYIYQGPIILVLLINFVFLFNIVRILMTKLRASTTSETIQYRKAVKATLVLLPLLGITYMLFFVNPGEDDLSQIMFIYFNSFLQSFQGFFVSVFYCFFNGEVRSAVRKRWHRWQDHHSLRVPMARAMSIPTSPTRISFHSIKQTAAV
T3 sequence (P24387 whole entry): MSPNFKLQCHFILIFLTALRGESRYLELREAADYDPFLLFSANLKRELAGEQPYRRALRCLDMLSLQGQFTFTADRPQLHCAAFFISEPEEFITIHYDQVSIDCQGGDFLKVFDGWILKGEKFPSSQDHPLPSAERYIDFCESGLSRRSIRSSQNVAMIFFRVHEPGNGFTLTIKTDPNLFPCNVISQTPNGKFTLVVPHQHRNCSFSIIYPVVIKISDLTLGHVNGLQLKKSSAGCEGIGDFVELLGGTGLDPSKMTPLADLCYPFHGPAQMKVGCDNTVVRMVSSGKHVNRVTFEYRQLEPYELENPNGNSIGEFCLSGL

[10] = Luminescence Cell-Based Dose Response HTS to Identify Inhibitors of 5'UTR Stem-Loop Driven Prion Protein mRNA Translation in H4 Neuroglioblastoma Cells. [Related pubchem assays: 1827 (Project Summary), 1813 (Primary HTS)]; type: functional
Beta-galactosidase = Beta-galactosidase (Escherichia coli, UniProt Q8VNN2); test: detection-enzyme interference by beta-gal modulators – biochemical, E. coli enzyme, set 3, artefact control for CCR6 antagonist project, dose response (AID 504712); type: functional
[11] = A549 cell cytotoxicity, dose response, cytotoxicity control, plate reader, cherry-pick, antagonist series (AID 743412); type: functional, cell-based
HEK293 = test: viability loss in HEK293T cells – cell-based, ATP luminescence, cherry-pick samples, cytotoxicity control, dose response (AID 687005); type: functional; conditions: Homo sapiens;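 further: cells exposed to compound for 48 hours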
[12] = HEK293 Cytotoxicity Assay Measured in Cell-Based System Using Plate Reader - 7071-01_Inhibitor_Dose_CherryPick_Activity_Set2.; type: functional
Cryptococcus neoformans = test: PubChem AID 686997; type: functional, organism-based; conditions: Cryptococcus neoformans
HeLa = test: viability loss in HeLa cells – cell-based, ATP luminescence, cherry-pick samples, cytotoxicity control, dose response (AID 687004); type: functional; conditions: Homo sapiens
[13] = molecular target: Voltage-gated N-type calcium channel alpha-1B subunit/Amyloid beta A4 precursor protein-binding family A member 1 (Homo sapiens, UniProt Q00975+Q02410); type: protein assay
Chain of Voltage-gated N-type calcium channel alpha-1B subunit/Amyloid beta A4 precursor protein-binding family A member 1 (Q00975 whole entry): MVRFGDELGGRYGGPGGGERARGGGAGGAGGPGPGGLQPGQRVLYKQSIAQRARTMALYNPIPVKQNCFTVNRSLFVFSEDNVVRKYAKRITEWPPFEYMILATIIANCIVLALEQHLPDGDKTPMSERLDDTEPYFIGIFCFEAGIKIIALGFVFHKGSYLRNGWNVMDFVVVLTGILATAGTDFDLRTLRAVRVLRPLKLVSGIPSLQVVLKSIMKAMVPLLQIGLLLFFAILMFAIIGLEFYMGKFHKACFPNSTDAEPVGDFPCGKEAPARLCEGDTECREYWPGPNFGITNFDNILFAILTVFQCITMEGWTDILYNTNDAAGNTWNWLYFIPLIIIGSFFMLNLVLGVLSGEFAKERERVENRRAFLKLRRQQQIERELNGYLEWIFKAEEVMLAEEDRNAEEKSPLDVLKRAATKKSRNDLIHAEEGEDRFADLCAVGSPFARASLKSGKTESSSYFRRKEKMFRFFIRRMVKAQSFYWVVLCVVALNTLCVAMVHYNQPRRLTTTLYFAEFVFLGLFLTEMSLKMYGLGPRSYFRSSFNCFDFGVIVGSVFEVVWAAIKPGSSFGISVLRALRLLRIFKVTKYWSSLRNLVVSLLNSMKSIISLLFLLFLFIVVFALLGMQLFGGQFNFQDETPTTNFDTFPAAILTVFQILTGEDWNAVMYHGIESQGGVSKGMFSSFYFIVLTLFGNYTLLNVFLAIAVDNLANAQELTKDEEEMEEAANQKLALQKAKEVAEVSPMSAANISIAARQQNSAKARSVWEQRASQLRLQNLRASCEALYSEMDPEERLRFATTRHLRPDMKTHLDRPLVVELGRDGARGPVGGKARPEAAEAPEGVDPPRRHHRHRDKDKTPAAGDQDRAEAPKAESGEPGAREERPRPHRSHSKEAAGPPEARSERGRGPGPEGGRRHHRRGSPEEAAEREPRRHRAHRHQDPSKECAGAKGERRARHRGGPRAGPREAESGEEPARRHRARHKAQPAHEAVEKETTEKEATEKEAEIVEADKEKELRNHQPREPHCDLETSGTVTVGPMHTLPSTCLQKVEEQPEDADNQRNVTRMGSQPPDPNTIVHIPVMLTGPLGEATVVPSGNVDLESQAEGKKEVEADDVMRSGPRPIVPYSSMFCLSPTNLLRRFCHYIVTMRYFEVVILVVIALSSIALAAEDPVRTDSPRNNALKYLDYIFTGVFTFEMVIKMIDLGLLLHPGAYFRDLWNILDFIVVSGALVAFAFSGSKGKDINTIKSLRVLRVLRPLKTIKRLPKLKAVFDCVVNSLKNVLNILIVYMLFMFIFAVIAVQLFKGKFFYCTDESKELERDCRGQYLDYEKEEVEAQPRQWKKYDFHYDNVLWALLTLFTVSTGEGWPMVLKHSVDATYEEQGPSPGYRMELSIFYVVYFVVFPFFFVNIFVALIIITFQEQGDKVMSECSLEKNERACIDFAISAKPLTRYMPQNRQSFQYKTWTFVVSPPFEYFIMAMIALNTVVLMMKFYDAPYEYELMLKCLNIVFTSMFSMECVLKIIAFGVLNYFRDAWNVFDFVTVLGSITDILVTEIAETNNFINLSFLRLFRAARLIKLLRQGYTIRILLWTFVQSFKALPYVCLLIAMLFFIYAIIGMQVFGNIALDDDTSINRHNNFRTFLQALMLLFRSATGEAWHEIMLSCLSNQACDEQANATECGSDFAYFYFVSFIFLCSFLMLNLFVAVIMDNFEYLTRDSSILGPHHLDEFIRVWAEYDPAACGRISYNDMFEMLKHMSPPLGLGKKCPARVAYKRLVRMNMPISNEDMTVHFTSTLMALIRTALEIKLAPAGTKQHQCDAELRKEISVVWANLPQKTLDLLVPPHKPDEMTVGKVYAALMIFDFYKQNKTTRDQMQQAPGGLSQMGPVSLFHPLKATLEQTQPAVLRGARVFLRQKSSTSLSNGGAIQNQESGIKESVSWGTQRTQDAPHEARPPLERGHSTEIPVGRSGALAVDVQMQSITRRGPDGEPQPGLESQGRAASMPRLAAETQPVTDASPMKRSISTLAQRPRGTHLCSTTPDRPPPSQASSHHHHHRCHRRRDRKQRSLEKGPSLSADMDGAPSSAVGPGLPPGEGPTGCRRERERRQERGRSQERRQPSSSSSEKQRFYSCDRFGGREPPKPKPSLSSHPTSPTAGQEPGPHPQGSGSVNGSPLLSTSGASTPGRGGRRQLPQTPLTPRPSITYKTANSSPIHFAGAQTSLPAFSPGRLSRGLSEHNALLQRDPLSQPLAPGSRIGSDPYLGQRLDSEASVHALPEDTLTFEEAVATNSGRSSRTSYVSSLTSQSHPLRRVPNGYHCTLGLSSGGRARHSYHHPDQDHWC
Chain of Voltage-gated N-type calcium channel alpha-1B subunit/Amyloid beta A4 precursor protein-binding family A member 1 (Q02410 whole entry): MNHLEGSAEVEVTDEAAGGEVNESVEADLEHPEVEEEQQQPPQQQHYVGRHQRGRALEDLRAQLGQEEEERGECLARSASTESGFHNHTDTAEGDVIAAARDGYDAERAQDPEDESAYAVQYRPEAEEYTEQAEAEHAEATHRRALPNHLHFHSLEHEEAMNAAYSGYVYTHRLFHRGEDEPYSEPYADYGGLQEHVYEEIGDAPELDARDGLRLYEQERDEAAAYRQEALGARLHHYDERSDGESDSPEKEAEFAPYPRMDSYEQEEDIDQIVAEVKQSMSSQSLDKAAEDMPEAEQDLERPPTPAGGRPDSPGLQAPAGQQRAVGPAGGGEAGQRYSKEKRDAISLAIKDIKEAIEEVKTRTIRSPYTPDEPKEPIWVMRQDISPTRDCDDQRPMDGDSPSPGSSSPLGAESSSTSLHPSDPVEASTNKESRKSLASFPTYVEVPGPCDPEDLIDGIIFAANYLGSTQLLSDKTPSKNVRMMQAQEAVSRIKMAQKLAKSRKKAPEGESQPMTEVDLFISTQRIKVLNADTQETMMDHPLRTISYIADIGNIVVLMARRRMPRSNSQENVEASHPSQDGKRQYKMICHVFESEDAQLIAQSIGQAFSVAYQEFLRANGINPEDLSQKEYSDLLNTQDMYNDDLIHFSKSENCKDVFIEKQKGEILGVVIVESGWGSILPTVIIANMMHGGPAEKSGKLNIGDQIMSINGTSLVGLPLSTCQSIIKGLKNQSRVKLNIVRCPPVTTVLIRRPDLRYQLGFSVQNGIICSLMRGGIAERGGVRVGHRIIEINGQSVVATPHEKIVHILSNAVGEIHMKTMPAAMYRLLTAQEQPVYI

[14] = inhibition of ADAM10 peptide cleavage – biochemical, FRET peptide substrate, recombinant human ADAM10, selectivity assay for ADAM17 exosite inhibitor project, dose response (AID 743259);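 further: ADAM10 enzyme cleaving a FRET peptide substrate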
[15] = molecular target: Disintegrin and metalloproteinase domain-containing protein 17 (Homo sapiens, UniProt P78536); test: exosite inhibitors of ADAM17, dose response, biochemical (AID 743260)
Chain of Disintegrin and metalloproteinase domain-containing protein 17 (P78536 whole entry, the tested form may be a part): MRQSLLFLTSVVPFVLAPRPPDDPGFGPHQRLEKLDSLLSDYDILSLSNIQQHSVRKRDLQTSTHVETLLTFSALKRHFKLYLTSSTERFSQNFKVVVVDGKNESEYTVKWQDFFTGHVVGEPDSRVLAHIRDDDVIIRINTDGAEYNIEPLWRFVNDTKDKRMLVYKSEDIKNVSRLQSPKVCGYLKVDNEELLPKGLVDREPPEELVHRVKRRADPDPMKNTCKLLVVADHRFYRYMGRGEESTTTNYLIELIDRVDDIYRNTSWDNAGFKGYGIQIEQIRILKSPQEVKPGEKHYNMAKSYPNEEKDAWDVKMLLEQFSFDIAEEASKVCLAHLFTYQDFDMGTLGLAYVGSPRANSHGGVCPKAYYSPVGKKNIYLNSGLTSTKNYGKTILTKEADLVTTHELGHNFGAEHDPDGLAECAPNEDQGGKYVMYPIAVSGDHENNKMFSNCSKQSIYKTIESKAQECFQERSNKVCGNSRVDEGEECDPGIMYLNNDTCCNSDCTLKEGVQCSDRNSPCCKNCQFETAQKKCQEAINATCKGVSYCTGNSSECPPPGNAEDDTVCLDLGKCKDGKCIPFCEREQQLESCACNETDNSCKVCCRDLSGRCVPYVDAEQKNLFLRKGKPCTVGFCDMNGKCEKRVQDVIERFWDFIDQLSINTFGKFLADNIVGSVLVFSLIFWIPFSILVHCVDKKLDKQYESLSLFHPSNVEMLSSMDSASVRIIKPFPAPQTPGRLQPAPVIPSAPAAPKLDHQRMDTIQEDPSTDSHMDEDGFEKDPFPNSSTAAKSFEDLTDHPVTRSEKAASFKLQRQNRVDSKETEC

[16] = molecular target: T4, Dual specificity protein phosphatase 6 (Rattus norvegicus, UniProt Q64346); test: inhibition of rat DUSP6 enzyme activity – biochemical, in vitro, primary screen (AID 425)
T4 sequence (Q64346 whole entry): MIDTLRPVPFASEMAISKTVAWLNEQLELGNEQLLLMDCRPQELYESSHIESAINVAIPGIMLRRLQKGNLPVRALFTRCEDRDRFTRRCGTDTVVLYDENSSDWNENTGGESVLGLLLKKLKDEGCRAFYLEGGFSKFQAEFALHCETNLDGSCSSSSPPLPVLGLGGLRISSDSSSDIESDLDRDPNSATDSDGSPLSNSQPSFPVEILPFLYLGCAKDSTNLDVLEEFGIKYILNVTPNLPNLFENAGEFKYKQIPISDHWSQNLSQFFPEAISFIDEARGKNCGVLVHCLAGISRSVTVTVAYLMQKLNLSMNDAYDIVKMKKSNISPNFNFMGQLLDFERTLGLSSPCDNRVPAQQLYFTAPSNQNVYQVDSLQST

Estrogen receptor beta = Estrogen receptor beta (Homo sapiens, UniProt Q92731); test: blockers of SRC-3 recruitment to ERβ – biochemical, ELISA, streptavidin-HRP readout, orthogonal assay, confirmation (AID 1060)

Chain of Sphingosine 1-phosphate receptor 2 (O95136 whole entry): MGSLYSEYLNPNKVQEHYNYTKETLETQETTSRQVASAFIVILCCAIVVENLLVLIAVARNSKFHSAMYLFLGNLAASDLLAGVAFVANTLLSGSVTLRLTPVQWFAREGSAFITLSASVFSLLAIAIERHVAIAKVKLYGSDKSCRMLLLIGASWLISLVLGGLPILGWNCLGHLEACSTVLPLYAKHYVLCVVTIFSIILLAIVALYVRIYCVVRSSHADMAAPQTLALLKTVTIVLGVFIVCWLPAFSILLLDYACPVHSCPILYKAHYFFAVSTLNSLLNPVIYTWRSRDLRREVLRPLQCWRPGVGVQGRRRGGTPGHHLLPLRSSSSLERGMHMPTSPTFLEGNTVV

## Cc1ccsc1C(=O)Nc1ccc(F)cc1
[1]
  IC50: > 30 µM (not active)

## CCC(C)[C@H](N)c1nnc(SCC(=O)c2ccc(Cl)cc2)o1 (some centres undefined)
[2]
  IC50: > 80 µM (inactive)

## O=C1c2cnc3nc(SCc4ccccc4)nn3c2CC2c3ccccc3CCN12 (centres undefined)
[3]
  EC50: > 120 µM (not active)

## Cc1ccc(NC(=O)/C(=C/c2cccc([N+](=O)[O-])c2)NC(=O)C2CCCCC2)c(C)c1
[3]
  EC50: > 120 µM (not active)
Estrogen receptor
  IC50: > 50 µM (not active)
Escherichia coli
  AC50: 62.4 µM (active)

## FC(F)(F)c1cnc2c(-c3cccs3)csc2c1
[1]
  IC50: > 30 µM (not active)

## Cc1ccc(S(=O)(=O)CCC(=O)Nc2ccc3c(c2)OCO3)cc1
[4]
  IC50: > 100 µM (active)

## CCN(CC)c1ccc(C2C3CCCCC3(O)CCN2CC(=O)Nc2ccccc2)cc1 (centres undefined)
[4]
  IC50: > 100 µM (active)

## O=C(Nc1cccc(Oc2ccc3c(c2)C(=O)NC3=O)c1)c1cccs1
[2]
  IC50: > 80 µM (inactive)

## CCN1CCCC1CNc1[nH]cnc2c3cc(F)ccc3nc1-2 (centres undefined)
[5]
  AC50: > 20 µM (inactive)

## CCCc1nc(SCC(=O)N2CCCC2)c2ccccc2n1
[6]
  IC50: 50.4 µM (not active)

## COc1ccccc1NC(=O)COc1ccc(CO)cc1Cl
[6]
  IC50: 68.6 µM (not active)

## O=C(Oc1coc(CSc2ncccn2)cc1=O)c1ccc(Br)o1
[3]
  EC50: > 120 µM (not active)

## Cc1cc(C)cc(NC(=O)c2nnn(Cc3cc(C)ccc3C)c2N)c1
[7]
  EC50: 18.2 µM (active)
[8]
  EC50: 13.6 µM (active)
[2]
  IC50: > 80 µM (inactive)
[9]
  EC50: 8.37 µM (active)
[10]
  EC50: 39.8 µM (active)

## O=C(Nc1ccc(F)cc1)c1cc(-c2cccs2)nc2ccccc12
[1]
  IC50: > 30 µM (not active)

## COC(=O)C1=C(C(=O)OC)C(C(=O)OC)C(C(=O)OC)C(C(=O)OC)(C(=O)OC)C(C(=O)OC)=C1C(=O)OC (centres undefined)
Beta-galactosidase
  IC50: > 66.6 µM (inactive)

## C[C@H](CO)N1C[C@H](C)[C@@H](CN(C)C(=O)Nc2ccc3c(c2)OCO3)Oc2c(cccc2N(C)C)C1=O
[11]
  AC50: > 52 µM (inactive)

## COC(=O)C1=C(C)N(Cc2ccccc2)C(=S)NC1c1cccc(Br)c1 (centres undefined)
HEK293
  AC50: 33.6 µM (active)
[12]
  AC50: 33.6 µM (active)
Cryptococcus neoformans
  AC50: 36.5 µM (active)

## O=C(Nc1ccccc1)N1CCCCN2[C@H](CO)[C@@H](c3ccc(C#CC4CC4)cc3)[C@@H]2C1
HEK293
  AC50: 14.4 µM (active)
[12]
  AC50: 14.4 µM (active)
HeLa
  AC50: > 52 µM (inactive)

## O=C(N/N=C/c1ccc([N+](=O)[O-])cc1)c1cc(-c2ccc3c(c2)OCO3)[nH]n1
[13]
  IC50: 7.27 µM (active)

## CC1CN(S(=O)(=O)c2ccc(NC(=O)c3cc(-c4ccccc4O)n[nH]3)cc2)CC(C)O1 (centres undefined)
[14]
  IC50: > 69.5 µM (inactive)
[15]
  IC50: > 69.5 µM (inactive)

## O=C(O)C(O)c1ccco1 (centres undefined)
[16]
  IC50: 3.73 µM (active)
Estrogen receptor
  IC50: > 50 µM (not active)
Estrogen receptor beta
  IC50: 3.23 µM (not active)
